Structures are written as SMILES.

In this experiment the test system is MV4:11 human cancer cell lines. Kind of experiment: Cellular viability / anti-proliferative activity (CellTiter-Glo). The note with it: MV4-11, 120 h, MV-4-11 cells, 5 day protocol, mean of minimum two replicates, read-out: GI50 on cellular proliferation of MV4:11 human cancer cell lines. The class given is cell-based. As to the method:
Cellular Viability of Human Tumor Cell Lines
Anti-Proliferative Activity Using MLL-Harboring Cell Lines.
MV-4-11 and K562 cells are grown in IMDM media supplemented with 10% FBS and […], Molm-13 cells are cultured in RPMI-1640 media supplemented with 10% FBS and 1% o penicillin/streptomycin. Viability assays are performed by dispensing 200 cells at 7200 cells/mL into each well of an opaque 384-well plate and adding compounds at the indicated concentrations in a final volume of 32 μL and a final concentration of DMSO of 0.3% for all samples. A certain range of compound concentrations is made through a series of 2-fold dilutions starting 30 μM at the highest, total 22 dilutions. After a set incubation period, 5 day protocol, the viability of cells in each well is assessed using the CellTiter-Glo assay (Promega), read on a 96 Microplane Luminometer (Cytation 3, BioTek). Serial dilutions of each cell type are performed in all assays to generate standard curves and the final densities of cells are determined within the dynamic range of the instrument. GI50 values are calculated based on XLfit software (IDBS, Guildford, UK) with Sigmoidal Dose-Response Model. Each compound is tested in minimum of two replicates. Data are expressed as mean.
(In ATP-based viability assays light output follows the ATP content of the culture.)
In the case of `CCn1cc(-c2cc(Cn3ccnc3)cc3c2NC(=O)CN([C@H](c2cc(OC)ccn2)C2CC2)C3=O)c(C(F)(F)F)n1` [Example 65, (S)-7-((1H-imidazol-1-yl)methyl)-4-(cyclopropyl(4-methoxypyridin-2-yl)methyl)-9-(1-ethyl-3-(trifluoromethyl)-1H-pyrazol-4-yl)-3,4-dihydro-1H-benzo[e][1,4]diazepine-2,5-dione], the GI50 came to 290 nM.
To `COc1cc(Cn2cnc3c(-c4ccc(F)cc4C)cc(Cn4ccn(C)c4=N)cc3c2=O)cc(OC)c1` [Example 1, 3-(3,5-Dimethoxybenzyl)-8-(4-fluoro-2-methylphenyl)-6-((2-imino-3-methyl-2,3-dihydro-1H-imidazol-1-yl)methyl)quinazolin-4(3H)-one] belongs 150 nM; to `CCc1cc(OC)c2nccc(N3CCOc4c(cc(Cn5ccnc5)cc4-c4cn(C)nc4C(F)(F)F)C3=O)c2c1` [Example 67, 7-((1H-imidazol-1-yl)methyl)-4-(6-ethyl-8-methoxyquinolin-4-yl)-9-(1-methyl-3-(trifluoromethyl)-1H-pyrazol-4-yl)-3,4-dihydrobenzo[f][1,4]oxazepin-5(2H)-one], 321 nM.
Consider `Cc1cc(C)nc(CN2CCOc3c(cc(Cn4ccnc4C)cc3-c3ccc(F)cc3C)C2=O)c1` [Example 41, 4-((4,6-Dimethylpyridin-2-yl)methyl)-9-(4-fluoro-2-methylphenyl)-7-((2-methyl-1H-imidazol-1-yl)methyl)-3,4-dihydrobenzo[f][1,4]oxazepin-5(2H)-one], for which the GI50 stood at 985 nM.
To `COc1cc(CN2C[C@H](C)Oc3c(cc(Cn4ccn(C)c4=N)cc3-c3ccc(F)cc3C)C2=O)cc(OC)c1` [Example 35, (S)-4-(3,5-Dimethoxybenzyl)-9-(4-fluoro-2-methylphenyl)-7-((2-imino-3-methyl-2,3-dihydro-1H-imidazol-1-yl)methyl)-2-methyl-3,4-dihydrobenzo[f][1,4]oxazepin-5(2H)-one] belongs 306 nM; to `COc1cc(CN2C[C@@H](C)Oc3c(cc(Cn4ccnc4C)cc3-c3ccc(F)cc3C)C2=O)cc(OC)c1` [Example 34, (R)-4-(3,5-Dimethoxybenzyl)-9-(4-fluoro-2-methylphenyl)-2-methyl-7-((2-methyl-1H-imidazol-1-yl)methyl)-3,4-dihydrobenzo[f][1,4]oxazepin-5(2H)-one], 1470 nM.
The figure for `Cc1ccnc(CN2CCOc3c(cc(Cn4ccnc4C)cc3-c3ccc(F)cc3C)C2=O)c1` [Example 25, 9-(4-Fluoro-2-methylphenyl)-7-((2-methyl-1H-imidazol-1-yl)methyl)-4-((4-methylpyridin-2-yl)methyl)-3,4-dihydrobenzo[f][1,4]oxazepin-5(2H)-one] is 300 nM.
The figure for `COc1cc(CN2CCOc3c(cc(Cn4cnn(C)c4=N)cc3-c3cn(C)nc3C(F)(F)F)C2=O)cc(OC)c1` [Example 15, 4-(3,5-Dimethoxybenzyl)-7-((5-imino-1-methyl-1,5-dihydro-4H-1,2,4-triazol-4-yl)methyl)-9-(1-methyl-3-(trifluoromethyl)-1H-pyrazol-4-yl)-3,4-dihydrobenzo[f][1,4]oxazepin-5(2H)-one] is 101 nM; for `COc1cnc2cccc(N3CCOc4c(cc(Cn5ccnc5)cc4-c4cn(C)nc4C(F)(F)F)C3=O)c2c1` [Example 70, 7-((1H-imidazol-1-yl)methyl)-4-(3-methoxyquinolin-5-yl)-9-(1-methyl-3-(trifluoromethyl)-1H-pyrazol-4-yl)-3,4-dihydrobenzo[f][1,4]oxazepin-5(2H)-one] it is 306 nM; for `COc1cc(Cn2c(C)nc3c(-c4ccc(F)cc4C)cc(CNC4=NCCN4)cc3c2=O)cc(OC)c1` [Example 21, 6-(((4,5-Dihydro-1H-imidazol-2-yl)amino)methyl)-3-(3,5-dimethoxybenzyl)-8-(4-fluoro-2-methylphenyl)-2-methylquinazolin-4(3H)-one] it is 194 nM.
With `CCn1cc(-c2cc(Cn3ccnc3C)cc3c2OCCN([C@H]2CCOc4ccc(OC)cc42)C3=O)c(C(F)(F)F)n1` [Example 64, (S)-9-(1-ethyl-3-(trifluoromethyl)-1H-pyrazol-4-yl)-4-(6-methoxychroman-4-yl)-7-((2-methyl-1H-imidazol-1-yl)methyl)-3,4-dihydrobenzo[f][1,4]oxazepin-5(2H)-one], the GI50 came out at 39 nM.
Consider `CCc1nccn1Cc1cc2c(c(-c3cn(CC)nc3C(F)(F)F)c1)OCCN([C@H](c1cc(OC)ccn1)C1CC1)C2=O` [Example 61, (S)-4-(Cyclopropyl(4-methoxypyridin-2-yl)methyl)-7-((2-ethyl-1H-imidazol-1-yl)methyl)-9-(1-ethyl-3-(trifluoromethyl)-1H-pyrazol-4-yl)-3,4-dihydrobenzo[f][1,4]oxazepin-5(2H)-one], for which the GI50 was determined as 158 nM.
The figure for `Cc1cc(C)nc(CN2CCOc3c(cc(Cn4ccnc4C)cc3-c3cc(Cl)ccc3C)C2=O)c1` [Example 52, 9-(5-Chloro-2-methylphenyl)-4-((4,6-dimethylpyridin-2-yl)methyl)-7-((2-methyl-1H-imidazol-1-yl)methyl)-3,4-dihydrobenzo[f][1,4]oxazepin-5(2H)-one] is 63 nM; for `Cc1ccnc(CN2CCOc3c(cc(Cn4ccnc4C)cc3-c3cn(C)nc3C(F)(F)F)C2=O)c1` [Example 27, 7-((2-Methyl-1H-imidazol-1-yl)methyl)-9-(1-methyl-3-(trifluoromethyl)-1H-pyrazol-4-yl)-4-((4-methylpyridin-2-yl)methyl)-3,4-dihydrobenzo[f][1,4]oxazepin-5(2H)-one] it is 192 nM.
To `CCn1cc(-c2cc(Cn3ccnc3)cc3c2OCCN([C@H]2CCOc4ccc(OC)cc42)C3=O)c(C(F)(F)F)n1` [Example 63, (S)-7-((1H-imidazol-1-yl)methyl)-9-(1-ethyl-3-(trifluoromethyl)-1H-pyrazol-4-yl)-4-(6-methoxychroman-4-yl)-3,4-dihydrobenzo[f][1,4]oxazepin-5(2H)-one] belongs 70 nM.
The figure for `COc1ccnc(Cn2cnc3c(-c4cn(C)nc4C(F)(F)F)cc(Cn4ccnc4C)cc3c2=O)c1` [Example 55, 3-((4-Methoxypyridin-2-yl)methyl)-6-((2-methyl-1H-imidazol-1-yl)methyl)-8-(1-methyl-3-(trifluoromethyl)-1H-pyrazol-4-yl)quinazolin-4(3H)-one] is 570 nM; for `COc1ccnc([C@H](C)N2CCOc3c(cc(Cn4cnn(C)c4=N)cc3-c3cn(C)nc3C(F)(F)F)C2=O)c1` [Example 53, (S)-7-((5-Imino-1-methyl-1,5-dihydro-4H-1,2,4-triazol-4-yl)methyl)-4-(1-(4-methoxypyridin-2-yl)ethyl)-9-(1-methyl-3-(trifluoromethyl)-1H-pyrazol-4-yl)-3,4-dihydrobenzo[f][1,4]oxazepin-5(2H)-one] it is 67 nM.
On to `Cc1ccnc(CN2C[C@H](C)Oc3c(cc(Cn4ccnc4C)cc3-c3cn(C)nc3C(F)(F)F)C2=O)c1` [Example 39, (S)-2-Methyl-7-((2-methyl-1H-imidazol-1-yl)methyl)-9-(1-methyl-3-(trifluoromethyl)-1H-pyrazol-4-yl)-4-((4-methylpyridin-2-yl)methyl)-3,4-dihydrobenzo[f][1,4]oxazepin-5(2H)-one], for which the GI50 stood at 730 nM.

Values taken from patent US12577227B2, “WDR5 inhibitors and modulators” (Vanderbilt University, priority 2019, dated 2026).
